US10668016B2, “Complexes of abiraterone acetate, process for the preparation thereof and pharmaceutical compositions containing them” (NanGenex Nanotechnology Incorporated, priority 2015, dated 2020)
Read-outs that look alike come from different tables or passages of the source.

What was measured:
[1] = cited from earlier work
[2] = tested on: serum testosterone and other androgens; conditions: patients, placebo-controlled phase 3 clinical trial; cited from earlier work
[3] = molecular target: P-glycoprotein (P-gp) (Homo sapiens, UniProt P08183); conditions: cited from earlier work
[4] = cited from earlier work; remark: listed apart in the source
[5] = cited from earlier work; for compound present in feces, % of the administered dose: oral 14C-abiraterone acetate
[6] = tested on: human plasma proteins, albumin and alpha-1 acid glycoprotein; conditions: cited from earlier work
[7] = PAMPA permeability; conditions: comparative in-vitro PAMPA assay
Description: PAMPA permeability measurements were performed as described by M Kansi et al. (Journal of medicinal chemistry, 41, (1998) pp 1007) with modifications based on S. Bendels et al (Pharmaceutical research, 23 (2006) pp 2525). Permeability was measured in a 96-well plate assay across an artificial membrane composed of dodecane with 20% soy lecithin supported by a PVDF membrane (Millipore, USA). The receiver compartment was phosphate buffered saline (pH 7.0) supplemented with 1% sodium dodecyl sulfate. The assay was performed at room temperature; incubation time was 1-24 hours. The concentration in the receiver compartment was determined by UV-VIS spectrophotometry (Thermo Scientific Genesys S10).

[8] = Apparent solubility in distilled water; format: physicochemical; conditions: distillated water, room temperature, 100 nm filter
Excerpt: The samples were dispersed in distillated water and the resulting dispersions were filtered by 100 nm disposable syringe filter. […] The filtrate may contain Abiraterone acetate complex particles which could not be filtrated out using 100 nm pore size filter.

[9] = 1,000 mg daily, patients with metastatic CRPC
[10] = high-fat (57% fat, 825 calories) meal
[11] = low-fat meal (7% fat, 300 calories)

Chain of P-glycoprotein (P-gp) (P08183 whole entry): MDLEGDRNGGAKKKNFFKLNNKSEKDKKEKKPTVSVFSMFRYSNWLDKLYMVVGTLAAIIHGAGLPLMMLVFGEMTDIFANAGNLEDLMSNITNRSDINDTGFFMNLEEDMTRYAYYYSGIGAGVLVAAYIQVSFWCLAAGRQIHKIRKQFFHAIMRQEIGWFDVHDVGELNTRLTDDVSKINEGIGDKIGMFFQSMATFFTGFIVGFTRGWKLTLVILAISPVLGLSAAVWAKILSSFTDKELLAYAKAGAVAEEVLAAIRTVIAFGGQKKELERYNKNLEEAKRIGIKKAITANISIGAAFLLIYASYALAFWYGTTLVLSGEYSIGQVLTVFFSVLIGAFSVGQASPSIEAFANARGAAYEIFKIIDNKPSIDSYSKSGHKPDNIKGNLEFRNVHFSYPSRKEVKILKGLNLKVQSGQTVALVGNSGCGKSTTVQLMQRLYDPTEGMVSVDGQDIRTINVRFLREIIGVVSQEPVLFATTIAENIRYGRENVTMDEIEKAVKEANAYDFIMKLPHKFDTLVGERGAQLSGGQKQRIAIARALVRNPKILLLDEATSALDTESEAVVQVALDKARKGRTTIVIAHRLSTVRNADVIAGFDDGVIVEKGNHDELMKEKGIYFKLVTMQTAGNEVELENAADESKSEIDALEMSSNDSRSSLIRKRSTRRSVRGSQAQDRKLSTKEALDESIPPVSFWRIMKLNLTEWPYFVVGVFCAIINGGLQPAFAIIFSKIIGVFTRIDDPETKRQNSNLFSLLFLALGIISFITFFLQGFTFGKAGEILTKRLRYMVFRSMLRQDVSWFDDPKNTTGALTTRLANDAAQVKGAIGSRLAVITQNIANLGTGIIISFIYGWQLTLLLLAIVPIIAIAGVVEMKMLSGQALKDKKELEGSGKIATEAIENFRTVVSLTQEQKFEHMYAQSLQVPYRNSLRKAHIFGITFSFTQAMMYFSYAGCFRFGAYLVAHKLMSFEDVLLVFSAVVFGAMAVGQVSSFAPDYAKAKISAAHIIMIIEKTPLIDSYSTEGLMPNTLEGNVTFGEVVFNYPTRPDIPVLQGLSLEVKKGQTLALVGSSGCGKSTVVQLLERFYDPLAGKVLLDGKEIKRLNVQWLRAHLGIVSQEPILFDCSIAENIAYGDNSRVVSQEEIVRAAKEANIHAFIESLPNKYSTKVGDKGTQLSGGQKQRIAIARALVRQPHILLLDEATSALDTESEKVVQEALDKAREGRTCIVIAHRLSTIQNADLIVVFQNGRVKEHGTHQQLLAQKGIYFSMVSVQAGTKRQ

Compound: CC(=O)O[C@H]1CC[C@@]2(C)C(=CC[C@@H]3[C@@H]2CC[C@]2(C)C(c4cccnc4)=CC[C@@H]32)C1 [Abiraterone acetate, (3β)-17-(3-pyridinyl) androsta-5,16-dien-3-yl acetate]
- Solubility in water [1]: practically insoluble
- Effect on serum testosterone and other androgens [2]: decreased
- P-gp inhibition ([3]; not told): inhibitor
- P-gp substrate ([3]; not told): not substrates
- steady-state AUC (mean±SD) [4, 9]: 0.993 ± 0.639 µg·h/mL
- steady-state Cmax (mean±SD) [4, 9]: 0.226 ± 0.178 µg/mL
- Abiraterone acetate plasma concentrations ([4]; below detectable levels in >99% of the analyzed samples): < 0.2 ng/mL
- increase in the mean AUC when dose doubled ([4]; dose doubled from 1,000 to 2,000 mg): 8%
- Abiraterone AUC0-∞ higher with food [4, 10]: ~10 fold
- Abiraterone Cmax higher with food [4, 10]: approximately 17 fold
- Abiraterone AUC0-∞ higher with food [4, 11]: ~5 fold
- Abiraterone Cmax higher with food [4, 11]: approximately 7 fold
- median time to reach maximum plasma Abiraterone concentrations ([4]; oral, patients with metastatic CRPC): 2 h
- Abiraterone AUC0-∞ (exposure) increase (positive food effect) ([4]; single dose): ≤ 10 fold
- Abiraterone Cmax increase (positive food effect) ([4]; single dose): up to 17 fold
- Abiraterone accumulation: steady-state AUC compared to a single 1,000 mg dose ([4]; steady-state): 2 fold
- compound present in feces, % of the administered dose [5]: approximately 55%

Compound: C[C@]12CC[C@H](O)CC1=CC[C@@H]1[C@@H]2CC[C@]2(C)C(c3cccnc3)=CC[C@@H]12 [Abiraterone]
- bound to human plasma proteins [6]: > 99%
- P-gp substrate ([3]; in vitro, clinically relevant concentrations): not substrates
- compound present in feces, % of the administered dose [5]: ~22%

Compound: C[C@]12CC[C@H](OS(=O)(=O)O)CC1=CC[C@@H]1[C@@H]2CC[C@]2(C)C(c3ccc[n+]([O-])c3)=CC[C@@H]12 [N-oxide Abiraterone sulphate]
- share of exposure of circulating metabolite in human plasma ([5]; oral 14C-abiraterone acetate capsules): about 43%

Compound: (3β)-17-(3-pyridinyl) androsta-5,16-dien-3-yl acetate [Abiraterone acetate]
- PAMPA permeability [7]: below 0.1*10^−6 cm/s
- Apparent solubility [8]: < 4 µg/mL
